Values of other authors in patent US20060018840A1, “Aerosolizable formulation comprising nicotine” (priority 2004, published 2006).

## CC(O)C(=O)O (stereo not shown) [lactic acid]
  pKa: about 3.8
